{
  "source": "patent US20160176769A1",
  "about": "“PARTICULATE NITRIFICATION INHIBITOR SYSTEMS” (Ballance Agri-Nutrients Limited, priority 2008, published 2016)",
  "test_system": "nitrification in soil",
  "experiment": "closed soil incubation experiment (nitrate and ammonium analyses of incubated soil)",
  "settings": "urea approx. 200 kg N/ha, Horotiu silt loam, 20°C",
  "description": "A closed soil incubation experiment was established with the three compositions or products. The beat treated DCD was added at 10 kg/ha and the DCD/P fertiliser blends were added at 10 kg DCD/ha equivalent.\nA control (urea only) and 2 DCD rates (10 kg DCD/ha and 1 kg DCD/ha) were included. Ten kg/ha is a standard rate of DCD application and matches the DCD/P fertiliser rate while 1 kg/ha matches the DCD rate applied in the heat treated product which was 10% W /W DCD. All treatments received urea solution at approximately 200 kg N/ha, and were replicated three times.\nThe soil was a Horotiu silt loam (Yellow Brown Loam) collected to a depth of approximately 100 mm from a site on the Ruakuta farm. The soil was sieved through a 4 mm sieve and stored at 4 ° C. overnight. Sub-samples were taken to determine the moisture content, soil water holding capacity and initial inorganic N concentration. To measure moisture content, subsamples were dried at 105° C. for 24 hours.\nStock solutions of urea, DCD and heated treated DCD were prepared. The compositions were diluted in water to aid dispersion through the soil and the more accurate addition of small amounts of material. The DCD/fertiliser blends however were weighed and applied dry as the material was largely insoluble.\nEach replicated treatment was added to 150 g of dry soil equivalent (195 g field moist soil) in a resealable plastic bag. Distilled water was added as necessary to increase the soil moisture to around 60% of water holding capacity. The contents of each bag were mixed thoroughly, and the bags sealed to include as much air as possible to ensure an aerobic environment was maintained. The bags were placed in an incubator set at 20°C. for the duration of the experiment (14 days).\nSoil sub-samples were taken from the bags at 2, 5, 9 and 14 days after incubation commenced for ammonium and nitrate analysis. The equivalent of approximately 5 g dry weight of soil was weighed into 150 mL flasks, 50 mL of 2 M potassium chloride (KCl) was added and the flasks shaken for one hour using end-over-end shakers (Mulvaney, 1996). The extractant was filtered (Whatman #42 filter paper) before being frozen prior to analysis for nitrate-N and ammoniumn-N using a Skalar segmented flow analyser. The data were statistically analysed using the ANOVA directive of GenStat (10th Edition) and L.S.D. (least significant difference) were calculated.",
  "key": {"[1]": {"settings": "Day 2, applied at 10 kg/ha (blends 10 kg DCD/ha equivalent)"}, "[2]": {"settings": "Day 5, applied at 10 kg/ha (blends 10 kg DCD/ha equivalent)"}, "[3]": {"settings": "Day 9, applied at 10 kg/ha (blends 10 kg DCD/ha equivalent)"}, "[4]": {"settings": "Day 14, applied at 10 kg/ha (blends 10 kg DCD/ha equivalent)"}},
  "data": [
    {"smiles": "N#CN=C(N)N", "note": "[DCD, dicyandiamide]", "values": [
      {"measurement": "Average ammonium concentration in soil", "setting": "Day 2, applied at 1 kg/ha", "value": 149.7, "unit": "μg NH4—N/g soil"},
      {"measurement": "Average nitrate concentration in soil", "setting": "Day 2, applied at 1 kg/ha", "value": 55.8, "unit": "μg NO3—N/g soil"},
      {"measurement": "Average ammonium concentration in soil", "setting": "[1]", "value": 159.7, "unit": "μg NH4—N/g soil"},
      {"measurement": "Average nitrate concentration in soil", "setting": "[1]", "value": 48.1, "unit": "μg NO3—N/g soil"},
      {"measurement": "Average ammonium concentration in soil", "setting": "Day 5, applied at 1 kg/ha", "value": 81.6, "unit": "μg NH4—N/g soil"},
      {"measurement": "Average nitrate concentration in soil", "setting": "Day 5, applied at 1 kg/ha", "value": 139.4, "unit": "μg NO3—N/g soil"},
      {"measurement": "Average ammonium concentration in soil", "setting": "[2]", "value": 106.2, "unit": "μg NH4—N/g soil"},
      {"measurement": "Average nitrate concentration in soil", "setting": "[2]", "value": 108.7, "unit": "μg NO3—N/g soil"},
      {"measurement": "Average ammonium concentration in soil", "setting": "Day 9, applied at 1 kg/ha", "value": 23.2, "unit": "μg NH4—N/g soil"},
      {"measurement": "Average nitrate concentration in soil", "setting": "Day 9, applied at 1 kg/ha", "value": 193.7, "unit": "μg NO3—N/g soil"},
      {"measurement": "Average ammonium concentration in soil", "setting": "[3]", "value": 63.1, "unit": "μg NH4—N/g soil"},
      {"measurement": "Average nitrate concentration in soil", "setting": "[3]", "value": 148.1, "unit": "μg NO3—N/g soil"},
      {"measurement": "Average ammonium concentration in soil", "setting": "Day 14, applied at 1 kg/ha", "value": 1.3, "unit": "μg NH4—N/g soil"},
      {"measurement": "Average nitrate concentration in soil", "setting": "Day 14, applied at 1 kg/ha", "value": 233.8, "unit": "μg NO3—N/g soil"},
      {"measurement": "Average ammonium concentration in soil", "setting": "[4]", "value": 22.1, "unit": "μg NH4—N/g soil"},
      {"measurement": "Average nitrate concentration in soil", "setting": "[4]", "value": 216.6, "unit": "μg NO3—N/g soil"}
    ]}
  ]
}
